According to patent US20230348454A1, “COMPOUNDS AS MODULATORS OF BIS-PHOSPHOGLYCERATE MUTASE FOR THE TREATMENT OF SICKLE CELL DISEASE” (Genzyme Corporation, priority 2020, published 2023):
Read-outs that look alike come from different tables or passages of the source.

Assays:
hBPGM = molecular target: T1, hBPGM (Homo sapiens, UniProt P07738); experiment: BPGM synthase assay; type: biochemical
T1 sequence (P07738 1-259): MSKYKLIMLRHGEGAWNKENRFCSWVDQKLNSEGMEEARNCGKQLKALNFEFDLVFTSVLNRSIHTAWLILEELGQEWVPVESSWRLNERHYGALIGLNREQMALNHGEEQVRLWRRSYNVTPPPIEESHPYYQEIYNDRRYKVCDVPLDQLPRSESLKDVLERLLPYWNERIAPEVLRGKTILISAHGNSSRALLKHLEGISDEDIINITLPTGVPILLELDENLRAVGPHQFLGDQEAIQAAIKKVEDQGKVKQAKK
Description: The following materials were used in this assay: deionized water; Bisphosphoglycerate mutase (BPGM; Standard Buffer: 50 mM Tris, 0.01% Tween 20, pH 7.4); BPGM Reaction Buffer (50 mM Tris, 0.01% Tween 20, 3.23 mM KH2PO4, pH 7.4); dithiothreitol (DTT; Stock solution: 100 mM in Standard Buffer); 384-Well Black Assay Plate (Corning, P/N 3575); DMSO; BPGM Stock Solution (500 nM in BPGM Standard Buffer); Glyceraldehyde 3-phosphate dehydrogenase (GAPDH; Stock Solution: 40 U/mL in 20 mM Tris-HCL Buffer with 20% Glycerol, 1 mM EDTA, 1 mM DTT); Glyceraldehyde 3-phosphate (GAP; Stock Solution: 20 mM in BPGM Standard Buffer); 3-PG Stock Solution (500 μM in BPGM Standard Buffer); Nicotinamide adenine dinucleotide (NAD; Stock Solution: 50 mM in BPGM Standard Buffer); Koningic Acid (1 mM Stock in DMSO); Resazurin Stock Solution (10 mM in DMSO); Diaphorase Stock Solution (40 U/mL in BPGM Standard Buffer); DTT Reaction Buffer (1 mM DTT in BPGM Reaction Buffer); Enzyme Solution (5 nM BPGM, 0.4 U/mL GAPDH in DTT Reaction Buffer); GAPDH Solution (0.4 U/mL GAPDH in DTT Reaction Buffer); Substrate Solution (2 mM NAD, 20 μM 3PG, 800 μM GAP in DTT Reaction Buffer); and Resazurin Solution (5 U/mL Diaphorase, 500 μM Resazurin in BPGM Standard Buffer).
To the assay plate was added Enzyme Solution (20 uL) to columns 2-22 and 24 of the assay plate. To columns 1 and 23 was added GAPDH Solution (20 uL). A separate compound plate was prepared at the desired concentrations and all wells were normalized with 5% DMSO. The compound plate was incubated for 30 minutes at RT. Next, the substrate solution (20 μL) was dispensed to all reaction wells and the plate was incubated for 60 minutes at RT. Koningic acid (1 μL) was added and the plate was incubated for 10 minutes at RT. During this time period, the NADH fluorescence was read at ex: 360/em: 460. Next, Resazurin Solution (10 μL) was added to all reaction wells and the plate was incubated for 30 minutes at RT. The resorufin fluorescence was then read at ex:544/em:590.

[1] = molecular target: T2, human Bisphosphoglycerate mutase (hBPGM) (Homo sapiens, UniProt P07738); experiment: BPGM phosphatase assay; type: biochemical; conditions: Table 6; read-out: huBPGM: phosphatase Enzyme EC50
T2 sequence (P07738 1-259): T1 sequence (P07738 1-259)
Description: The following materials were used in this assay: Tris buffer (50 mM Tris, 0.01% Tween 20, pH 7.4); cyclohexylammonium salt of 2,3-BPG (stock solution of 500 mM in ultapure distilled water; human Bisphosphoglycerate mutase (hBPGM; stock solution of 110 μM in Standard Buffer); 3-Phosphoglyceric acid (3-PG; stock solution of 100 mM in ultrapure distilled water); 384-Well Polystyrene Plates (Fisherbrand™, Catalog No.: 12-566-625); BIOMOL GREEN REAGENT (Enzo life sciences, BML-AK111-0250); and 1 mM DMSO stock of exemplary compounds.
A 3-PG enzyme mix solution (final enzyme concentration 62.5 nM, 3-PG concentration at 50 µM, 14.5 uL) was added to onto a 384-well clear plate. Solutions of the test compounds were then added to the plate and the DMSO content was normalized across the plate. The plate was incubated at RT for 15 min. Next, the substrate 2,3-BPG (5 μL) was added to all the wells, and the plate was sealed and incubated for 24 hr at RT. After incubation, BIOMOL green dye (40 μL) was added to all the wells, the plate was shaken to mix, and the plate was incubated at RT for 20-30 min. Absorbance measurements were recorded at 620 nm.

[2] = Table 6, read-out: huBPGM: synthase Enzyme IC50

Cc1nc(COCC(=O)N2CCN(C)CC2)sc1-c1csc(-c2cc(F)c(O)c(F)c2F)n1 [Example 123]
IC50 (hBPGM; [2]): 1.6 µM

Cc1nc(COCC(=O)N2CCC(O)C2)sc1-c1csc(-c2cc(F)c(O)c(F)c2F)n1 (stereo not shown) [Example 124]
IC50 (hBPGM; [2]): 6.3 µM

Cc1nc(COc2ncccn2)sc1-c1cccc(-c2ccc3[nH]c(=O)[nH]c3c2)n1 [Example 128]
IC50 (hBPGM; [2]): 6.7 µM

Cc1nc(COc2ncccn2)sc1-c1cccc(-c2ccc3c(c2)C(=O)NC3=O)n1 [Example 132]
IC50 (hBPGM; [2]): 8.1 µM

Cc1nc(COc2ncccn2)sc1-c1cccc(-c2cc(F)c(O)c(F)c2C)n1 [Example 133]
IC50 (hBPGM; [2]): 4.4 µM

Cc1nc(COc2ncccn2)sc1-c1cccc(-c2ccc([N+](=O)[O-])c(F)c2)n1 [Example 134]
IC50 (hBPGM; [2]): > 25 µM

Cc1nc(COc2ncc(Cl)cn2)sc1-c1cccc(-c2cc(F)c3nn[nH]c3c2)n1 [Example 140]
EC50 [1]: 0.03 µM

Cc1nc(CNC(=O)C(C)(C)C)sc1-c1cccc(-c2cc(F)c(O)c(F)c2F)c1 [Example 146]
IC50 (hBPGM; [2]): 13 µM

Cc1nc(COc2ncccn2)sc1-c1cccc(-c2ccn3c(O)nnc3c2)n1 [Example 149]
IC50 (hBPGM; [2]): 4.5 µM

Cc1nc(COc2ncccn2)sc1-c1cccc(-c2cc(F)c3nnn(C)c3c2)n1 [Example 150]
IC50 (hBPGM; [2]): > 99 µM

Cc1nc(COc2ncccn2)sc1-c1cccc(-c2ccc(-c3n[nH]c(=O)o3)cc2)n1 [Example 161]
IC50 (hBPGM; [2]): > 25 µM

Cc1nc(COc2ncccn2)sc1-c1cccc(-c2ccc(-n3cn[nH]c3=O)cc2)n1 [Example 162]
IC50 (hBPGM; [2]): > 25 µM

Cc1nc(C)c(-c2csc(-c3cc(O)c(NS(=O)(=O)c4ccccc4)cc3F)n2)s1 [Example 180]
IC50 (hBPGM; [2]): > 25 µM

Cc1nc(CNC(=O)C2CCN(C)CC2)sc1-c1csc(-c2cc(F)c3[nH]nnc3c2)n1 [Example 182]
IC50 (hBPGM; [2]): 1.9 µM

COC(=O)NCc1nc(C)c(-c2csc(-c3cc(O)c(NS(C)(=O)=O)cc3F)n2)s1 [Example 183]
IC50 (hBPGM; [2]): > 25 µM

COC(=O)NCc1nc(C)c(-c2csc(-c3cc(O)c(-c4nnn[nH]4)cc3F)c2)s1 [Example 184]
IC50 (hBPGM; [2]): 0.25 µM

COC(=O)NCc1nc(C)c(-c2csc(-c3cnc(O)nc3)n2)s1 [Example 193]
IC50 (hBPGM; [2]): 23 µM

Cc1nc(COc2ccccn2)sc1-c1csc(-c2cc(F)c(O)c(F)c2)c1 [Example 198]
IC50 (hBPGM; [2]): 5.2 µM

Cc1nc(COc2ccccn2)sc1-c1cccc(-c2cc(F)c(O)c(F)c2)n1 [Example 199]
IC50 (hBPGM; [2]): 6.5 µM

COC(=O)NCc1nc(C)c(-c2csc(-c3cnc(O)c(F)c3)n2)s1 [Example 200]
IC50 (hBPGM; [2]): 12 µM

COC(=O)NCc1nc(C)c(-c2csc(-c3cc(O)c(S(N)(=O)=O)cc3F)n2)s1 [Example 202]
IC50 (hBPGM; [2]): > 25 µM

COC(=O)NCc1nc(C)c(-c2csc(-c3ccc(C4SC(=O)NC4=O)cc3)n2)s1 (stereo not shown) [Example 204]
IC50 (hBPGM; [2]): > 25 µM

Cc1nc(C)c(-c2cccc(-c3ccc(C(=O)NS(=O)(=O)c4ccccc4)cc3)n2)s1 [Example 209]
IC50 (hBPGM; [2]): 3.3 µM

Cc1nc(Cc2ccccn2)sc1-c1cccc(-c2ccc(C(=O)NS(C)(=O)=O)cc2)c1 [Example 210]
IC50 (hBPGM; [2]): 7.5 µM

Cc1nc(Cc2ccccn2)sc1-c1cccc(-c2ccc(C(=O)NS(=O)(=O)c3ccccc3)cc2)c1 [Example 211]
IC50 (hBPGM; [2]): 0.74 µM

Cc1nc(COc2ncccn2)sc1-c1cccc(-c2ccc3oc(=O)[nH]c3c2)n1 [Example 212]
IC50 (hBPGM; [2]): 2.6 µM

Cc1nc(C)c(COc2cc(F)c3nn[nH]c3c2F)s1 [Example 215]
IC50 (hBPGM; [2]): > 25 µM

Cc1ncsc1-c1cccc(-c2cc(F)c3[nH]nnc3c2F)n1 [Example 216]
IC50 (hBPGM; [2]): 5.4 µM

Cc1nc(C(=O)NC2CCC(O)CC2)sc1-c1cccc(-c2cc(F)c3[nH]nnc3c2F)n1 (stereo not shown) [Example 217]
IC50 (hBPGM; [2]): 0.12 µM

Cc1nc(COCC(C)(C)O)sc1-c1cccc(-c2cc(F)c(O)c(F)c2F)n1 [Example 218]
IC50 (hBPGM; [2]): 0.41 µM

Cc1nc(COCC(C)(C)O)sc1-c1cccc(-c2cc(F)c3nn[nH]c3c2)n1 [Example 219]
IC50 (hBPGM; [2]): 0.058 µM

Cc1nc(COc2ncccn2)sc1-c1ccnc(-c2cc(F)c3nn[nH]c3c2F)n1 [Example 220]
IC50 (hBPGM; [2]): 0.027 µM

Cc1nc(COCCN(C)C)sc1-c1cccc(-c2cc(F)c3nn[nH]c3c2F)n1 [Example 221]
IC50 (hBPGM; [2]): 0.17 µM

Cc1nc(C)c(CCOc2cc(F)c3nn[nH]c3c2F)s1 [Example 222]
IC50 (hBPGM; [2]): > 25 µM

Cc1nc(CNC(=O)C(C)(C)C)sc1-c1ccnc(-c2cc(F)c3nn[nH]c3c2F)n1 [Example 223]
IC50 (hBPGM; [2]): 0.84 µM

Cc1nc(COCC(C)(C)O)sc1-c1nc(-c2cc(F)c3nn[nH]c3c2F)cs1 [Example 224]
IC50 (hBPGM; [2]): 0.03 µM

Cc1nc(CN(C)CC(C)(C)O)sc1-c1cccc(-c2cc(F)c3nn[nH]c3c2F)n1 [Example 225]
IC50 (hBPGM; [2]): 0.21 µM

Cc1nc(COCC(C)(C)O)sc1-c1nc(-c2cc(F)c3nn[nH]c3c2)cs1 [Example 226]
IC50 (hBPGM; [2]): 0.082 µM

COC(C)(C)COCc1nc(C)c(-c2cccc(-c3cc(F)c4nn[nH]c4c3F)n2)s1 [Example 227]
IC50 (hBPGM; [2]): 0.021 µM

COc1c(F)cc(-c2cccc(-c3sc(COc4ncccn4)nc3C)n2)c(F)c1C#N [Example 228]
IC50 (hBPGM; [2]): > 25 µM

Cc1nc(COc2ncccn2)sc1-c1cccc(Nc2ccc3[nH]nnc3c2)n1 [Example 229]
IC50 (hBPGM; [2]): > 25 µM

Cc1nc(-c2cccc(-c3sc(COc4ncccn4)nc3C)n2)nnc1O [Example 230]
IC50 (hBPGM; [2]): > 25 µM

Cc1nc(COc2ncccn2)sc1-c1cccc(-c2cc(F)c(O)c(C#N)c2F)n1 [Example 231]
IC50 (hBPGM; [2]): 0.087 µM

Cc1nnc(-c2cccc(-c3cc(F)c4nn[nH]c4c3F)n2)s1 [Example 232]
IC50 (hBPGM; [2]): 2.2 µM

Cc1nc(COc2ncccn2)sc1-c1cnn(-c2cc(F)c(O)c(F)c2F)c1 [Example 233]
IC50 (hBPGM; [2]): 3.9 µM

Cc1nc(COCC(C)(C)C)sc1-c1cccc(-c2cc(F)c3nn[nH]c3c2F)n1 [Example 234]
IC50 (hBPGM; [2]): 1.3 µM

Cc1nc(COC(C)(C)C)sc1-c1cccc(-c2cc(F)c3nn[nH]c3c2F)n1 [Example 235]
IC50 (hBPGM; [2]): 0.13 µM

Cc1nc(COC(C)C)sc1-c1cccc(-c2cc(F)c3nn[nH]c3c2F)n1 [Example 236]
IC50 (hBPGM; [2]): 0.11 µM

Cc1nc(COCC(C)O)sc1-c1cccc(-c2cc(F)c3nn[nH]c3c2F)n1 (stereo not shown) [Example 237]
IC50 (hBPGM; [2]): 0.022 µM

Cc1nc(COCC2(O)CC2)sc1-c1cccc(-c2cc(F)c3nn[nH]c3c2F)n1 [Example 238]
IC50 (hBPGM; [2]): 0.049 µM

Cc1nc(COc2ncccn2)sc1-c1cccc(-c2cc(F)c(O)c(C#N)c2)n1 [compound 12]
IC50 (hBPGM; Table 3, read-out: hBPGM Synthase IC50): 0.256 µM
IC50 (hBPGM; [2]): 0.26 µM
